Results taken from patent US12421243B2, “Pharmaceutically effective compounds inhibiting selectively the myosin 2 isoforms” (PRINTNET KERESKEDELMI ÉS SZOLGÁLTATÓ KFT., priority 2018, dated 2025).
Read-outs that look alike come from different tables or passages of the source.

Assays:
[1] = biological target: recombinant Dictyostelium miozin (Dictyostelium) (Dictyostelium discoideum, UniProt P08799); experiment: actomyosin steady state ATPase measurement, Dictyostelium myosin; format: biochemical
Excerpt: (§1) […]; (ii) the concentration required for semi-maximal inhibition.

[2] = biological target: recombinant human non-muscle myosin 2 NM2A (Homo sapiens, UniProt P35579); experiment: actomyosin steady state ATPase measurement, NM2A; format: biochemical
Excerpt: as §1

[3] = biological target: recombinant human non-muscle myosin 2 NM2B (Homo sapiens, UniProt P35580); experiment: actomyosin steady state ATPase measurement, NM2B; format: biochemical
Sequence of recombinant human non-muscle myosin 2 NM2B (P35580 whole entry): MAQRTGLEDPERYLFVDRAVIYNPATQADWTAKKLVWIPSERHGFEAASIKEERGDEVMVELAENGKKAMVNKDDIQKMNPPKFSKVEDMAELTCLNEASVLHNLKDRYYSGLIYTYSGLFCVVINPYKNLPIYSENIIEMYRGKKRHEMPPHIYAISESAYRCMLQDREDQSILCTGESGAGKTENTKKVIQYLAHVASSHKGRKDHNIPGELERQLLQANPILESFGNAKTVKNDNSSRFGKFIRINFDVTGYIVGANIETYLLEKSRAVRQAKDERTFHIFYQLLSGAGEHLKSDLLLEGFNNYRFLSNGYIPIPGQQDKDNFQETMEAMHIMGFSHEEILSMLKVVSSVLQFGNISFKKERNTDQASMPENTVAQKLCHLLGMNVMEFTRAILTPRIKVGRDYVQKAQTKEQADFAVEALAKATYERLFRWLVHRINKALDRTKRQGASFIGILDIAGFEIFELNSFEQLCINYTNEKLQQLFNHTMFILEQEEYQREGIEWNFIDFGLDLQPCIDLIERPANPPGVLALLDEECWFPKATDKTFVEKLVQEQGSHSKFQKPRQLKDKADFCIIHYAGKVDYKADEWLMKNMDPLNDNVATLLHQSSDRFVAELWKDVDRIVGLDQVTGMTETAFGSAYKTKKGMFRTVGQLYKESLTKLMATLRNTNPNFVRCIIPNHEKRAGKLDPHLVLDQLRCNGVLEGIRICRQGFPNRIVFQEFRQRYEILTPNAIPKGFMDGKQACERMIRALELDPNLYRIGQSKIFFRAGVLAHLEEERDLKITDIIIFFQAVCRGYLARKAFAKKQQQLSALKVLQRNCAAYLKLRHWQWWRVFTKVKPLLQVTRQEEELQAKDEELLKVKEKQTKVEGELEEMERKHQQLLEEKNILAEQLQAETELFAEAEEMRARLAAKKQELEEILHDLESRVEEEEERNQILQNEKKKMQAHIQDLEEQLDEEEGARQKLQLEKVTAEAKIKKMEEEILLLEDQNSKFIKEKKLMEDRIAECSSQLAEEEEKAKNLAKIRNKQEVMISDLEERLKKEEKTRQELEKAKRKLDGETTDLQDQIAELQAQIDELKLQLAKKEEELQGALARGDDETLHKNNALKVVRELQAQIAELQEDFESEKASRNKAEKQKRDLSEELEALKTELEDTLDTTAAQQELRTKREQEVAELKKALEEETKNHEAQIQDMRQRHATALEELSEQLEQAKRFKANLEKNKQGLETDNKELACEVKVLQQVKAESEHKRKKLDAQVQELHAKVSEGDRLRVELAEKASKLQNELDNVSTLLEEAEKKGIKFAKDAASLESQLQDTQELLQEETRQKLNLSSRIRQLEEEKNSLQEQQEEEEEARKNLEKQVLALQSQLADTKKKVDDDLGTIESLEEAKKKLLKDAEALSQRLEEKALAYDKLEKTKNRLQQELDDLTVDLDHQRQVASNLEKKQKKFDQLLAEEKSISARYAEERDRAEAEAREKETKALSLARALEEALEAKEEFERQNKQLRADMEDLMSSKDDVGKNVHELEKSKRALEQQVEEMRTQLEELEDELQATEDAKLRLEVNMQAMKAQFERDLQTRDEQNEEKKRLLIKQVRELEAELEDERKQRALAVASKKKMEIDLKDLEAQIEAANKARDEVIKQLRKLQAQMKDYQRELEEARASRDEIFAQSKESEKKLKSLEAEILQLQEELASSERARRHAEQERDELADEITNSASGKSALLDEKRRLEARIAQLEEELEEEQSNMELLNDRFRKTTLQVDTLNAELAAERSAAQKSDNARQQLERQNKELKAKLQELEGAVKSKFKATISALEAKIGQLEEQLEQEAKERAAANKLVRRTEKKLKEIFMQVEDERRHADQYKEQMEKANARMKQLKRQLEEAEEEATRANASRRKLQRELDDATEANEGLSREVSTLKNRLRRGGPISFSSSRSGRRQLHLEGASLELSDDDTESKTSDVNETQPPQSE
Excerpt: as §1

[4] = biological target: recombinant human non-muscle myosin 2 NM2C (Homo sapiens, UniProt Q7Z406); experiment: actomyosin steady state ATPase measurement, NM2C; format: biochemical
Excerpt: as §1

[5] = test system: isolated rabbit skeletal muscle myosin (skeletal); experiment: actomyosin steady state ATPase measurement, skeletal muscle myosin; format: biochemical
Excerpt: as §1

[6] = biological target: isolated smooth muscle myosin (UniProt P10587); format: biochemical, chamois; conditions: concentration required for semi-maximal inhibition of ATPase
Sequence of isolated smooth muscle myosin (P10587 whole entry): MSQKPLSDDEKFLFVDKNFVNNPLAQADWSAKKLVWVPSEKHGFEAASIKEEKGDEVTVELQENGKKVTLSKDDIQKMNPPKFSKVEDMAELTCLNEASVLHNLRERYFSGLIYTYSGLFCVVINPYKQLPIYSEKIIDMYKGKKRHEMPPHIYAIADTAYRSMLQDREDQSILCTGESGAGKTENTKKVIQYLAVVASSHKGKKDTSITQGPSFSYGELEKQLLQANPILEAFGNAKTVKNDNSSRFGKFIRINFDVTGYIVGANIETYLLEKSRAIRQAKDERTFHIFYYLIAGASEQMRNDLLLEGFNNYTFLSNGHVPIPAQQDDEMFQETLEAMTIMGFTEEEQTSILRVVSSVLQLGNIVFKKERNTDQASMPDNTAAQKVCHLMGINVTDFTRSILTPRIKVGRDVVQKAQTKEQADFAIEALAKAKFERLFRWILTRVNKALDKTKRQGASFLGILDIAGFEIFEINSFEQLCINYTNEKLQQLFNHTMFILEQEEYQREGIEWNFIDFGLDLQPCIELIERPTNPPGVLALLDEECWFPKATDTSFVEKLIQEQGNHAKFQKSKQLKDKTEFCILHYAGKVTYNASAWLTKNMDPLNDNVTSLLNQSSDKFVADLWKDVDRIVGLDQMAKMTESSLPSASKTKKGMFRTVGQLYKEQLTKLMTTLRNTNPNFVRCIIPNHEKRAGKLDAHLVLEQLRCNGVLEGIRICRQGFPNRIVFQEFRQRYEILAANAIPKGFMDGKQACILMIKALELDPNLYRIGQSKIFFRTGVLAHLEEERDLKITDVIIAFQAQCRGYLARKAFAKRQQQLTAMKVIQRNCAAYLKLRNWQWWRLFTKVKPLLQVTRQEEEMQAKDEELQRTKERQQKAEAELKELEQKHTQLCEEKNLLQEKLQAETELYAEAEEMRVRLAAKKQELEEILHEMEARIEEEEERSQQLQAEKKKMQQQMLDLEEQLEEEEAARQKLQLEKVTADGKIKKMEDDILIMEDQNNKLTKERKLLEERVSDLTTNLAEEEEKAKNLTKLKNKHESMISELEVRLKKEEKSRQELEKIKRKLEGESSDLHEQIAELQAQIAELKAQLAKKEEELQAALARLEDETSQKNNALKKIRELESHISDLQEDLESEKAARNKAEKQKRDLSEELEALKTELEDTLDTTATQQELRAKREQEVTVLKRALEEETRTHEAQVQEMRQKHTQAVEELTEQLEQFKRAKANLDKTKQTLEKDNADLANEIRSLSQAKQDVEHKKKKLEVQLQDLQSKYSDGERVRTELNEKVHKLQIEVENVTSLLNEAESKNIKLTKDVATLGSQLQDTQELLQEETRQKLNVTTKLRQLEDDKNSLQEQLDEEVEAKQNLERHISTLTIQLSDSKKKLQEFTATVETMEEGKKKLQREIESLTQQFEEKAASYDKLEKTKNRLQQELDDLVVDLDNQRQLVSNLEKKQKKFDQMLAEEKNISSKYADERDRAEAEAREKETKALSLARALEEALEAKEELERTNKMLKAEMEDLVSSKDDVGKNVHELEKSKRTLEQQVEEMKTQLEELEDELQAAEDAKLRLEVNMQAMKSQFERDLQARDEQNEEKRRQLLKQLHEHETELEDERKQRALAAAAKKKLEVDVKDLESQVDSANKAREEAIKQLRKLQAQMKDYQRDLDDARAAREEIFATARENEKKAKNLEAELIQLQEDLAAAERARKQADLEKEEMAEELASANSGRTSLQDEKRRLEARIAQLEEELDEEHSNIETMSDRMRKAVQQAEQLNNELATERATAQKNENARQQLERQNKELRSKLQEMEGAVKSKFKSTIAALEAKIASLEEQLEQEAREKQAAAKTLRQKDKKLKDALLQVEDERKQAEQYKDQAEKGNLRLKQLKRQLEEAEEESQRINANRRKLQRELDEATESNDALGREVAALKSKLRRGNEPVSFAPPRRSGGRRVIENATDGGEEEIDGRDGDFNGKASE
Excerpt: (ii) the concentration required for semi-maximal inhibition.

[7] = vital parameters of live anesthetized rats monitored during isometric force measurement; format: in vivo; conditions: anesthetized rat; for Maximum change of vital parameters (%) blood flow: neck arteries
Description: The maximum isometric force induced by the stimulation was determined after intraperitoneal injection of some of the compounds of the invention. During the measurement, the following parameters of live anesthetized rats were continuously monitored: • a) heart rate • b) blood flow in the neck arteries • c) respiratory frequency • d) blood oxygen saturation ratio

[8] = tissue concentrations after intraperitoneal injection into a live rat; format: in vivo; conditions: ip, 6 mg i.p.
[9] = solubility in PBS in the presence of 1% DMSO; format: physicochemical; conditions: phosphate buffered saline with 1% DMSO, aqueous buffer, kinetic from dmso stock, PBS w/o Mg, Ca
[10] = test system: S. typhimurium TA98; experiment: Ames Reverse Mutagenicity Assay (Ames MPF Test), TA98; format: cell-based
Description: (§2) Mutagenicity of the compounds was determined in the Ames Reverse Mutagenicity Assay (Ames MPF Test, Xenometrix Inc.) approved by the OECD, EMA and FDA on S. typhimurium TA98 and TA100 strains without or in the presence of S9 rat liver fraction. Relative mutagenicity values were prepared using a table provided by the manufacturer. Relative mutagenicity values according to OECD, EMA, and FDA standards may not exceed 2 at any concentration because in such a case they are potentially mutagenic.

[11] = test system: S. typhimurium TA100; experiment: Ames Reverse Mutagenicity Assay (Ames MPF Test), TA100; format: cell-based
Description: as §2

[12] = biological target: isolated smooth muscle myosin (UniProt P10587); format: biochemical, chamois
[13] = maximum value of inhibition of ATPase activity
[14] = concentration required for semi-maximal inhibition of ATPase
[15] = 5 μM (10 μM if racemate), ATPase activity
[16] = 50 μM (100 μM if racemate), ATPase activity
[17] = blood, read-out: Concentration of compound 188 in tissue samples (μM) blood
[18] = brain, read-out: Concentration of compound 188 in tissue samples (μM) brain
[19] = skeletal muscle, read-out: Concentration of compound 188 in tissue samples (μM) muscle
[20] = kidney, read-out: Concentration of compound 188 in tissue samples (μM) kidney
[21] = liver, read-out: Concentration of compound 188 in tissue samples (μM) liver
[22] = lung, read-out: Concentration of compound 188 in tissue samples (μM) lung
[23] = myocardium, read-out: Concentration of compound 188 in tissue samples (μM) myocardium
[24] = spleen, read-out: Concentration of compound 188 in tissue samples (μM) spleen
[25] = urine, read-out: Concentration of compound 188 in tissue samples (μM) urine

Structure (SMILES): O=C1c2ccsc2N=C2N(c3ccc(N4CCOCC4)cc3)CCC12O (stereo not drawn) [Compound 188, 9-Hydroxy-12-[4-(morpholin-4-yl)phenyl]-4-thia-2,12-diazatricyclo[7.3.0.0^3,7]dodeca-1,3(7),5-trien-8-one]
- IC50 ([1]; concentration required for semi-maximal inhibition of ATPase, read-out: IC50 (μM) Dicty): 13 µM
- % inhibition. complete Dicty [1, 13]: 19%
- inhibition at 5 µM ([1]; read-out: % inhibition at 5 μM (or 10 μM if racemate) Dicty): 5%
- inhibition at 50 µM ([1]; read-out: % inhibition at 50 μM (or 100 μM if racemate) Dicty): 15%
- IC50 [2, 14]: 82 µM
- % inhibition. complete NM2A [2, 13]: 31%
- inhibition at 5 µM ([2]; read-out: % inhibition at 5 μM (or 10 μM if racemate) NM2A, 5 μM (10 μM if racemate), ATPase activity): 0%
- inhibition at 50 µM ([2]; read-out: % inhibition at 50 μM (or 100 μM if racemate) NM2A, 50 μM (100 μM if racemate), ATPase activity): 9%
- IC50 [3, 14]: 5 µM
- % inhibition. complete NM2B [3, 13]: 19%
- inhibition at 5 µM ([3]; read-out: % inhibition at 5 μM (or 10 μM if racemate) NM2B, 5 μM (10 μM if racemate), ATPase activity): 8%
- inhibition at 50 µM ([3]; read-out: % inhibition at 50 μM (or 100 μM if racemate) NM2B, 50 μM (100 μM if racemate), ATPase activity): 18%
- IC50 [4, 14]: 4 µM
- Inhibition (%) NM2C ([4]; maximum inhibition, compounds in IC50 range 1-5 μM): 15%
- % inhibition. complete NM2C [4, 13]: 15%
- inhibition at 5 µM ([4]; read-out: % inhibition at 5 μM (or 10 μM if racemate) NM2C, 5 μM (10 μM if racemate), ATPase activity): 8%
- inhibition at 50 µM ([4]; read-out: % inhibition at 50 μM (or 100 μM if racemate) NM2C, 50 μM (100 μM if racemate), ATPase activity): 14%
- % inhibition at 5 μM (or 10 μM if racemate) Skeletal [5, 15]: 50%
- % inhibition at 50 μM (or 100 μM if racemate) Skeletal [5, 16]: 95%
- IC50 [5, 14]: 5 µM
- % inhibition. complete Skeletal [5, 13]: 100%
- IC50 [6]: > 100 µM
- Maximum change of vital parameters (%) heart rate ([7]; 1 mg i.p.): 3%
- Maximum change of vital parameters (%) oxygen saturation ([7]; 1 mg i.p.): −16%
- Maximum change of vital parameters (%) respiratory frequency ([7]; 1 mg i.p.): −18%
- Maximum change of vital parameters (%) blood flow ([7]; 1 mg i.p.): 15%
- Maximum change of vital parameters (%) heart rate ([7]; 3 mg i.p.): −3%
- Maximum change of vital parameters (%) oxygen saturation ([7]; 3 mg i.p.): −3%
- Maximum change of vital parameters (%) respiratory frequency ([7]; 3 mg i.p.): 5%
- Maximum change of vital parameters (%) blood flow ([7]; 3 mg i.p.): −5%
- Maximum change of vital parameters (%) heart rate ([7]; 6 mg i.p.): −9%
- Maximum change of vital parameters (%) oxygen saturation ([7]; 6 mg i.p.): −1%
- Maximum change of vital parameters (%) respiratory frequency ([7]; 6 mg i.p.): −1%
- Maximum change of vital parameters (%) blood flow ([7]; 6 mg i.p.): −1%
- Maximum change of vital parameters (%) heart rate ([7]; 9 mg i.p.): −12%
- Maximum change of vital parameters (%) oxygen saturation ([7]; 9 mg i.p.): −27%
- Maximum change of vital parameters (%) respiratory frequency ([7]; 9 mg i.p.): −40%
- Maximum change of vital parameters (%) blood flow ([7]; 9 mg i.p.): 9%
- concentration at 5 min [8, 17]: 12 µM
- concentration at 15 min [8, 17]: 16 µM
- concentration at 30 min [8, 17]: 12 µM
- concentration at 45 min [8, 17]: 10 µM
- concentration at 60 min [8, 17]: 8 µM
- concentration at 5 min [8, 18]: 25 µM
- concentration at 15 min [8, 18]: 45 µM
- concentration at 30 min [8, 18]: 36 µM
- concentration at 45 min [8, 18]: 17 µM
- concentration at 60 min [8, 18]: 5 µM
- concentration at 5 min [8, 19]: 22 µM
- concentration at 15 min [8, 19]: 48 µM
- concentration at 30 min [8, 19]: 69 µM
- concentration at 45 min [8, 19]: 78 µM
- concentration at 60 min [8, 19]: 74 µM
- concentration at 5 min [8, 20]: 29 µM
- concentration at 15 min [8, 20]: 56 µM
- concentration at 30 min [8, 20]: 20 µM
- concentration at 45 min [8, 20]: 12 µM
- concentration at 60 min [8, 20]: 3 µM
- concentration at 5 min [8, 21]: 30 µM
- concentration at 15 min [8, 21]: 18 µM
- concentration at 30 min [8, 21]: 12 µM
- concentration at 45 min [8, 21]: 9 µM
- concentration at 60 min [8, 21]: 3 µM
- concentration at 5 min [8, 22]: 25 µM
- concentration at 15 min [8, 22]: 36 µM
- concentration at 30 min [8, 22]: 22 µM
- concentration at 45 min [8, 22]: 9 µM
- concentration at 60 min [8, 22]: 4 µM
- concentration at 5 min [8, 23]: 36 µM
- concentration at 15 min [8, 23]: 48 µM
- concentration at 30 min [8, 23]: 26 µM
- concentration at 45 min [8, 23]: 18 µM
- concentration at 60 min [8, 23]: 9 µM
- concentration at 5 min [8, 24]: 37 µM
- concentration at 15 min [8, 24]: 28 µM
- concentration at 30 min [8, 24]: 11 µM
- concentration at 45 min [8, 24]: 5 µM
- concentration at 60 min [8, 24]: 3 µM
- concentration at 5 min [8, 25]: 58 µM
- concentration at 15 min [8, 25]: 77 µM
- concentration at 30 min [8, 25]: 72 µM
- concentration at 45 min [8, 25]: 63 µM
- concentration at 60 min [8, 25]: 21 µM
- solubility [9]: 1450 µM
- Relative mutagenicity (as compared to the control value) ([10]; TA98, +S9, 31.25 μM): 0.2
- Relative mutagenicity (as compared to the control value) ([10]; TA98, +S9, 62.5 μM): 0.2
- Relative mutagenicity (as compared to the control value) ([10]; TA98, +S9, 125 μM): 0.4
- Relative mutagenicity (as compared to the control value) ([10]; TA98, +S9, 250 μM): 0.4
- Relative mutagenicity (as compared to the control value) ([10]; TA98, +S9, 500 μM): 0.4
- Relative mutagenicity (as compared to the control value) ([10]; TA98, +S9, 1000 μM): 0.2
- Relative mutagenicity (as compared to the control value) ([10]; TA98, −S9, 31.25 μM): 1.2
- Relative mutagenicity (as compared to the control value) ([10]; TA98, −S9, 62.5 μM): 0.3
- Relative mutagenicity (as compared to the control value) ([10]; TA98, −S9, 125 μM): 0.7
- Relative mutagenicity (as compared to the control value) ([10]; TA98, −S9, 250 μM): 0.3
- Relative mutagenicity (as compared to the control value) ([10]; TA98, −S9, 500 μM): 0.7
- Relative mutagenicity (as compared to the control value) ([10]; TA98, −S9, 1000 μM): 1.0
- Relative mutagenicity (as compared to the control value) ([11]; TA100, +S9, 31.25 μM): 0.4
- Relative mutagenicity (as compared to the control value) ([11]; TA100, +S9, 62.5 μM): 0.3
- Relative mutagenicity (as compared to the control value) ([11]; TA100, +S9, 125 μM): 0.6
- Relative mutagenicity (as compared to the control value) ([11]; TA100, +S9, 250 μM): 0.6
- Relative mutagenicity (as compared to the control value) ([11]; TA100, +S9, 500 μM): 0.6
- Relative mutagenicity (as compared to the control value) ([11]; TA100, +S9, 1000 μM): 0.5
- Relative mutagenicity (as compared to the control value) ([11]; TA100, −S9, 31.25 μM): 0.8
- Relative mutagenicity (as compared to the control value) ([11]; TA100, −S9, 62.5 μM): 0.5
- Relative mutagenicity (as compared to the control value) ([11]; TA100, −S9, 125 μM): 0.6
- Relative mutagenicity (as compared to the control value) ([11]; TA100, −S9, 250 μM): 0.5
- Relative mutagenicity (as compared to the control value) ([11]; TA100, −S9, 500 μM): 0.6
- Relative mutagenicity (as compared to the control value) ([11]; TA100, −S9, 1000 μM): 0.7
- % inhibition at 5 μM (or 10 μM if racemate) Smooth [12, 15]: 0%
- % inhibition at 50 μM (or 100 μM if racemate) Smooth [12, 16]: 11%
- % inhibition. complete Smooth [12, 13]: 100%
